The values that follow come from PubChem BioAssay (NCI).

Assay in all cases: DTP human tumour cell line panel, 48 h
Experiment [1] relates to HCT-116 colon.
Experiment [2] deals with MDA-MB-435.
The test system of experiment [3] is OVCAR-4 ovarian.
Experiment [4] deals with OVCAR-8 ovarian.
The subject of experiment [5] is PC-3 prostate.
Experiment [6] concerns TK-10 renal.
For experiment [7], the system named is CAKI-1 renal.
The test system of experiment [8] is HCC-2998 colon.
The subject of experiment [9] is NCI-H226 lung.
Experiment [10] deals with MCF7 breast.

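48-hour exposure; five concentrations; linearly interpolated endpoints. Here, GI50 denotes the concentration required for 50% inhibition of growth. TGI denotes the concentration required for complete inhibition of growth.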

For the compound `O=C(O)/C(=C\c1ccncc1)c1cccc2ccccc12`, the TGI in [1], in experiment [2], in experiment [3], in experiment [4], in experiment [5] and in [6] was > 100 µM throughout.
For the compound `CCCCCCCCCCC(C)CCCCCCC(=O)O` (stereo not given), the TGI in [7], in experiment [8], in experiment [1], in experiment [9], in experiment [3] and in experiment [4] was > 100 µM in each case. Further, the TGI in experiment [6] was > 100 µM.
Take `Nc1c(C(=O)Nc2cccc(Cl)c2Cl)sc2nc3c(cc12)C(=O)CCC3`: the GI50 is > 100 µM in [7]; > 100 µM in experiment [8]; > 100 µM in experiment [1]; > 100 µM in [10]; 0.277 µM in [2]; > 100 µM in [9]. In addition, the GI50 in experiment [3], in experiment [4] and in experiment [6] was > 100 µM each time. Moreover, the TGI in experiment [7], in experiment [8], in [1], in experiment [10], in experiment [2] and in experiment [9] was > 100 µM throughout. The TGI in [3], in [4] and in [6] was > 100 µM each time.
For `O=C(CC/C(CC(=O)c1ccc(Br)cc1)=N\O)Nc1ccc(Cl)c(Cl)c1`, the TGI in [8], in [1], in experiment [9], in experiment [3], in [4] and in [6] was > 100 µM in each case.
On to `CCC[CH2][Sn]1([CH2]CCC)[O]CC(C)[O]1` (stereo not given), for which the GI50 in experiment [7] is 0.24 µM; in experiment [8], 1.46 µM; in experiment [1] it was 1.78 µM; in experiment [9], 2.11 µM; in experiment [3], 1.59 µM; in experiment [4], 1.59 µM. Besides, the GI50 in experiment [6] was 1.26 µM. Also, the TGI in experiment [7] is 1.23 µM; in experiment [8], 2.91 µM; in experiment [1], 3.43 µM; in [9], 4.62 µM; in experiment [3], 3.45 µM; in [4] it was 3.47 µM. This compound also had a TGI in [6] of 2.56 µM.
As for `Brc1cc2c(cc1Br)CN(c1ccccc1)C2`, the TGI in [8], in experiment [1], in [9], in experiment [3], in [4] and in experiment [6] was > 100 µM each time.
For `Cc1cc(Nc2cc(N)ncn2)c(=O)n2c1C(=O)NC21CCCCC1`, the GI50 in experiment [8], in experiment [1], in experiment [10], in experiment [2], in experiment [9] and in experiment [3] was > 100 µM each time. In addition, the GI50 in experiment [4], in [5] and in experiment [6] was > 100 µM each time. The TGI in experiment [8], in [1], in experiment [10], in [2], in experiment [9] and in experiment [3] was > 100 µM each time. Moreover, the TGI in experiment [4], in [5] and in [6] was > 100 µM throughout.
In the case of `Cc1cccc2c(O)cc(=O)oc12`, the TGI in experiment [1], in [9], in [3], in [4] and in experiment [6] was > 100 µM each time.
For the compound `O=C(CCCCC(=O)N/N=C\c1ccccc1O)N/N=C\c1ccccc1O`, the GI50 in experiment [8] is 3.87 µM; in experiment [1], 3.69 µM; in experiment [9], 3.12 µM; in experiment [3] it was 1.73 µM; in experiment [4], 2.6 µM; in [5] it was 5.65 µM. Also, the GI50 in experiment [6] was 6.4 µM. The total growth inhibition concentration (TGI) in [8], in [1], in experiment [9], in experiment [3], in experiment [4] and in experiment [5] was > 100 µM each time. Further, the TGI in experiment [6] was > 100 µM.
`O=C1/C(=C/c2ccc(Br)cc2)CCC/C1=C\c1ccc(Br)cc1`: the TGI in [7] is > 100 µM; in experiment [8], 6.48 µM; in experiment [1] it was 3.1 µM; in [3], 36.2 µM; in experiment [4] it was 22 µM; in [6], 83.1 µM.
Turning to `Cc1ccc(C(=O)CC2=Nc3nnc(CCCCCCCc4nnc5n4C(=O)C(CC(=O)c4ccc(C)cc4)=N5)n3C2=O)cc1`, the TGI in experiment [7], in experiment [8], in experiment [1], in experiment [9], in experiment [3] and in experiment [4] was > 100 µM throughout. Besides, in [6], the TGI is > 100 µM.
`COC(=O)c1nn(C(=N)c2ccc(Cl)cc2)c2c1CCC2`: the TGI in [7], in experiment [8], in experiment [1], in experiment [9], in experiment [3] and in experiment [4] was > 100 µM in each case. The TGI in experiment [6] was > 100 µM.
`CC(=O)[CH-]C(C)=O.CC(=O)[CH-]C(C)=O.CC[O-].CC[O-].[Ti+4]`: the GI50 in experiment [7], in experiment [8], in experiment [9], in experiment [3], in experiment [4] and in [6] was > 100 µM throughout. The TGI in experiment [7], in experiment [8], in [9], in experiment [3], in experiment [4] and in experiment [6] was > 100 µM in each case.
As to `NNC(=O)C(=O)N/N=C(\CCC(=O)Nc1ccc(Cl)cc1)Cc1nc2ccccc2s1`, the TGI in [7], in experiment [8], in experiment [1], in experiment [9], in experiment [4] and in experiment [6] was > 100 µM each time.
On to `CN(C)C(=O)Oc1c(-c2ccccc2)c(=O)n2c3ccccc3n3c(=O)n(C)c(=O)c1c23`, for which the TGI in [7], in experiment [8], in experiment [1], in experiment [3], in experiment [4] and in experiment [6] was > 100 µM each time.
Take `CCN(CC)c1ccc(/C=C/C=C2\NC(=O)NC2=O)cc1`: the GI50 in [7] is 2.65 µM; in experiment [8], 2.44 µM; in [1], 1.6 µM; in [10], 3.77 µM; in [9], 15 µM; in experiment [3] it was 9.01 µM. Further, the GI50 in experiment [4] is 6.21 µM; in experiment [5], 3.75 µM; in experiment [6] it was 6.54 µM. Moreover, the TGI in [7] was > 100 µM; in experiment [8] it was 29.1 µM; in [1], 30.6 µM; in experiment [10] it was > 100 µM; in [9] it was > 100 µM; in experiment [3], > 100 µM. In addition, the TGI is 66.6 µM in experiment [4], > 100 µM in experiment [5] and 64.2 µM in experiment [6].
`C[C@]12CCC(=O)C=C1CC[C@@H]1C2CC[C@]2(C)c3nn(-c4ccccc4)nc3CC12` (stereo not given in full): the TGI in [8], in experiment [1], in experiment [9], in experiment [3], in [4] and in experiment [6] was > 100 µM throughout.
In the case of `O=NN(CCCl)C(=O)NC1CCC(CC2CCC(NC(=O)N(CCCl)N=O)CC2)CC1` (stereo not given), the TGI is > 100 µM in experiment [7]; > 100 µM in [8]; > 100 µM in experiment [1]; > 100 µM in [9]; > 100 µM in experiment [3]; > 31.6 µM in [4]. The TGI in experiment [6] is > 100 µM.
With `CCN(CC)CCNC(=O)c1cccc2nc3ccccc3nc12`, the TGI was > 100 µM in [7]; 52 µM in experiment [8]; 45.6 µM in experiment [1]; 34.2 µM in experiment [9]; 38.8 µM in [3]; > 100 µM in [4]. Further, in experiment [6], the concentration for total growth inhibition (TGI) was > 100 µM.
As for `N.N.O=P([O-])([O-])C1(P(=O)([O-])[O-])CCCCCN1.[Pt+2]`, the GI50 in experiment [7], in experiment [8], in experiment [1], in experiment [9], in experiment [3] and in [4] was > 100 µM each time. The GI50 in experiment [6] is > 100 µM. In addition, the TGI in experiment [7], in experiment [8], in [1], in experiment [9], in experiment [3] and in experiment [4] was > 100 µM throughout. Moreover, the TGI in [6] is > 100 µM.
`CC(=O)[O-].O=C([CH-]C(=O)c1ccccc1)c1ccccc1.O=C([CH-]C(=O)c1ccccc1)c1ccccc1.[Sm+3]`: the GI50 in experiment [7] was 3.57 µM; in experiment [8], 3.81 µM; in experiment [1], 5.05 µM; in experiment [9] it was 1.52 µM; in [3], 4.81 µM; in experiment [4] it was 2.13 µM. For the same compound, the GI50 in [6] was 6.41 µM. The TGI in experiment [7] came out at 15.9 µM; in experiment [8] it was 14.6 µM; in experiment [1], 18.2 µM; in experiment [9], 9.69 µM; in experiment [3] it was 62.6 µM; in experiment [4] it was 16.3 µM. In experiment [6], this compound registered a TGI of 48.7 µM.
As to `CC(C)=CC(=O)Cc1nc2ccc([N+](=O)[O-])cc2[nH]c1=O`, the TGI in experiment [7], in [1], in experiment [9], in [3], in [4] and in experiment [6] was > 100 µM in each case.
With `CC1(C)CC(N(C(=O)/C=C/c2ccc([N+](=O)[O-])o2)C2CCCCC2)CC(C)(C)N1`, the TGI in experiment [7] is 17.2 µM; in experiment [8] it was 23.6 µM; in experiment [1], 12 µM; in [3] it was 22.2 µM; in experiment [4], 17.8 µM; in experiment [6], 35.8 µM.
Consider `CN(C)CC/C(=N\Nc1ccc(Cl)cc1Cl)c1ccccc1`, for which the TGI in experiment [1] turned out to be 27.9 µM; in experiment [4], 34.9 µM; in experiment [6] it was 28.3 µM.
With `O=C(CCC(=O)C1CCC/C1=N/O)Nc1ccc(Cl)cc1` (stereo not given), the TGI in [7], in [8], in experiment [1], in experiment [9], in experiment [3] and in experiment [4] was > 100 µM in each case. For the same compound, the TGI in [6] is > 100 µM.
On to `CCSc1ccc(C2C(Br)C(=O)N2c2cc(OC)c(OC)c(OC)c2)cc1` (stereo not given), for which the GI50 is 0.673 µM in experiment [8]; 0.222 µM in [1]; 0.0447 µM in experiment [10]; 3.11 µM in experiment [9]; 1.43 µM in experiment [3]; 0.403 µM in [4]. Besides, the GI50 in experiment [5] is 0.297 µM; in experiment [6], 14.3 µM. The TGI in experiment [8] turned out to be 29.1 µM; in experiment [1], 10.6 µM; in experiment [10], 17 µM; in experiment [9], 43.5 µM; in [3], 40.5 µM; in experiment [4], 51.8 µM. Further, the TGI was > 100 µM in experiment [5] and 33.4 µM in experiment [6].
As for `Cn1cccc1/C=C/c1cc(Br)c(/C=C/c2cccn2C)cc1Br`, the TGI in experiment [7] turned out to be 39.7 µM; in experiment [8], 16.6 µM; in [1] it was 43.4 µM; in experiment [9], 39.5 µM; in experiment [3], 20.2 µM; in experiment [6], 45.3 µM.
For the compound `CCc1cccc(C)c1NC(=O)CC1C(=O)Nc2ccccc2S1(=O)=O` (stereo not given), the total growth inhibition concentration (TGI) was 31.2 µM in [7]; 30.4 µM in experiment [8]; 35.4 µM in experiment [1]; > 100 µM in experiment [9]; 29.6 µM in [3]; 54.1 µM in experiment [4]. In addition, the TGI in experiment [6] was 59.4 µM.
